Assay [1] in a line: Effect on random weight of ob/ob mice after single subcutaneous injection. As to conditions: 100 μg/kg single s.c., X ± s, n = 7. The assay is classed as in vivo.
Procedure: The mice in each group received random blood glucose value measurement before (0 h) administration and 2, 4, 6, 10 and 24 h after administration, and then the time for measuring the random blood glucose was adjusted and prolonged to 34, 48, 58 or 72 h after administration according to the blood glucose condition of the mice in each group. Meanwhile, the random weight of the mice in each group before (0 h) administration and 24 h after administration was weighed, and then the random weight of the mice corresponding to the random blood glucose measurement condition 48 or 72 h after administration was weighed.
The target in the next assay is T1, mGLP-1R (Mus musculus, UniProt O35659).
T1 construct: expressed in transfected cells; host or cells: HEK293
T1 sequence (O35659 22-463): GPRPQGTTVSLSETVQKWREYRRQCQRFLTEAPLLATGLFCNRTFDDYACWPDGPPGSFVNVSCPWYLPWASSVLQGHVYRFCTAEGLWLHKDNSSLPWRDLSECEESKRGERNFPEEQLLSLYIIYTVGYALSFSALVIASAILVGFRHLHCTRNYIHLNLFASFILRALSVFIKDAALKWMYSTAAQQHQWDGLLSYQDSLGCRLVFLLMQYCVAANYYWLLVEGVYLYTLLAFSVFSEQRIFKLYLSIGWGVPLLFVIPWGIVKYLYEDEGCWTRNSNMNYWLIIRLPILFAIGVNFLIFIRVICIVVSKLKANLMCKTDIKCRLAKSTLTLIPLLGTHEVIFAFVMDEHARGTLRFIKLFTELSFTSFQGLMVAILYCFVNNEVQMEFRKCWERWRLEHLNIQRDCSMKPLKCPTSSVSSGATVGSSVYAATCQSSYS
As to the kind of experiment: GLP-1R agonist activity, cAMP in transfected HEK293 cells. The assay is classed as cell-based.

The next assay has as its system ob/ob mice. As to the kind of experiment: Blood glucose reducing experiment, single subcutaneous injection in ob/ob mice.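 Further: random blood glucose read at each time point, decrease rate given as percentage fall versus the model control group.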 The assay is classed as in vivo. As to conditions: 100 μg/kg single s.c.
A further assay has as its target T2, mGIPR (Mus musculus, UniProt Q0P543).
T2 construct: expressed in transfected cells; host or cells: HEK293
T2 sequence (Q0P543 19-460): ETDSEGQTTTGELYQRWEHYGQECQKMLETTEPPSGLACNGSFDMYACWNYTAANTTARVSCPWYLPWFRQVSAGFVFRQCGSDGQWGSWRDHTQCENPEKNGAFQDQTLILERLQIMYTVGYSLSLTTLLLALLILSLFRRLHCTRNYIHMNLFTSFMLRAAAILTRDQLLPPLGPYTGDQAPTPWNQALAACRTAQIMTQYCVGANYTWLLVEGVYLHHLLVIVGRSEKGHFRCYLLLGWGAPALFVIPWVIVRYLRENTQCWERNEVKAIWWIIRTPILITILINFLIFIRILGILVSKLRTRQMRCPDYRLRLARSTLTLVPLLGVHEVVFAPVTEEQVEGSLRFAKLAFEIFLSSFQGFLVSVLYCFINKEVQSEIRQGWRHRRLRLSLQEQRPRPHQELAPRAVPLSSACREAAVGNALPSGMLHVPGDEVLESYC
As to the kind of experiment: GIPR agonist activity, cAMP in transfected HEK293 cells. The assay is classed as cell-based.

pEC50: −log10 of the molar value. *1 amine or outer side, *2 acyl side, *3 side chain or, on linkers, in order; H or OH if unused. Where a SMILES comes first, the peptide text is derived from it. Side-chain parts run from the residue outwards. [ ]: non-standard residue; d: D form. The star is where a group is joined. C18 diacid = O=C(O)CCCCCCCCCCCCCCCCC(=O)*; γGlu = O=C(O)[C@H](CCC(=O)[*:2])N[*:1]; AEEA = NCCOCCOCC(=O)O; Aib = CC(C)(N)C(=O)O

In general, pEC50 refers to the negative decadic logarithm of the EC50, by convention in mol/L. A low value points to a large EC50.

Procedure for mGIPR: HEK293 cells were co-transfected with cDNA encoding GLP-1R or GIPR. In a test for determining the compound, the cells were inoculated in a 96-well plate 2 h in advance, the polypeptide compound was dissolved with DMSO, and diluted to different multiples with a culture medium containing 0.1% bovine serum albumin and added to the co-transfected cells.

On to `CC[C@H](C)[C@H](NC(=O)[C@H](CCCCN)NC(=O)[C@H](CC(=O)O)NC(=O)[C@H](CC(C)C)NC(=O)[C@H](C)NC(=O)[C@@H](NC(=O)[C@H](CO)NC(=O)[C@H](Cc1ccc(O)cc1)NC(=O)[C@H](CC(=O)O)NC(=O)[C@H](CO)NC(=O)[C@@H](NC(=O)[C@H](Cc1ccccc1)NC(=O)[C@@H](NC(=O)CNC(=O)[C@H](CCC(=O)O)NC(=O)C(C)(C)NC(=O)[C@@H](N)Cc1ccc(O)cc1)[C@@H](C)O)[C@@H](C)O)[C@@H](C)CC)C(=O)N[C@@H](C)C(=O)N[C@@H](CCC(N)=O)C(=O)N[C@@H](CCCCNC(=O)COCCOCCNC(=O)COCCOCCNC(=O)CC[C@H](NC(=O)CCCCCCCCCCCCCCCCC(=O)O)C(=O)O)C(=O)N[C@@H](C)C(=O)N[C@@H](Cc1ccccc1)C(=O)N[C@H](C(=O)N[C@@H](CCC(N)=O)C(=O)N[C@@H](Cc1c[nH]c2ccccc12)C(=O)N[C@@H](CC(C)C)C(=O)N[C@H](C(=O)N[C@@H](C)C(=O)NCC(=O)NCC(=O)N1CCC[C@H]1C(=O)N[C@@H](CO)C(=O)N[C@@H](CO)C(=O)NCC(=O)N[C@@H](C)C(=O)N1CCC[C@H]1C(=O)N1CCC[C@H]1C(=O)N1CCC[C@H]1C(=O)N[C@@H](CO)C(N)=O)[C@@H](C)CC)C(C)C` [ID NO: 6] (H-Y[Aib]EGTFTSDYSIALDKIAQK([AEEA-AEEA-γGlu-C18 diacid])AFVQWLIAGGPSSGAPPPS-NH2), for which, in assay [1] (0 h), the “Changes of random body weight at different time after administration, 0 h” value is listed as 0.0 ± 0.0 g and the “Random body weight at different time after administration, 0 h” value was 43.5 ± 0.6 g. Further, in assay [1] (24 h), the “Changes of random body weight at different time after administration, 24 h” value is -1.5 ± 0.2 g and the “Random body weight at different time after administration, 24 h” value is 42.1 ± 0.7 g. In assay [1] (48 h), the “Changes of random body weight at different time after administration, 48 h” value was -0.8 ± 0.1 g and the “Random body weight at different time after administration, 48 h” value came out at 42.7 ± 0.7 g. The compound further gave a pEC50 at mGLP-1R of 11.59. Moreover, the “Blood glucose at different time after administration, 0 h” value in the assay on ob/ob mice (0 h (before administration), X ± s, n = 7) was determined as 20.64 ± 0.77 mmol/L. Moreover, in the assay on ob/ob mice (2 h), the “Decrease rate of blood glucose at different time after administration, 2 h” value is 52.7%. For the same compound, the “Blood glucose at different time after administration, 2 h” value in the assay with ob/ob mice (2 h, X ± s, n = 7) was found to be 9.76 ± 0.83 mmol/L. Moreover, in the assay with ob/ob mice (4 h), the “Decrease rate of blood glucose at different time after administration, 4 h” value worked out at 56.6%. Besides, in the assay with ob/ob mice (4 h, X ± s, n = 7), the “Blood glucose at different time after administration, 4 h” value is 8.96 ± 0.77 mmol/L. Also, the “Decrease rate of blood glucose at different time after administration, 6 h” value in the assay on ob/ob mice (6 h) is 58.6%. The “Blood glucose at different time after administration, 6 h” value in the assay with ob/ob mice (6 h, X ± s, n = 7) worked out at 8.55 ± 0.96 mmol/L. The “Decrease rate of blood glucose at different time after administration, 10 h” value in the assay on ob/ob mice (10 h) is 51.9%. Besides, in the assay on ob/ob mice (10 h, X ± s, n = 7), the “Blood glucose at different time after administration, 10 h” value is recorded as 9.93 ± 0.76 mmol/L. The “Decrease rate of blood glucose at different time after administration, 24 h” value with ob/ob mice (24 h) is reported as 49.0%. In addition, in the assay on ob/ob mice (24 h, X ± s, n = 7), the “Blood glucose at different time after administration, 24 h” value was found to be 10.53 ± 1.21 mmol/L. Besides, the “Decrease rate of blood glucose at different time after administration, 34 h” value in the assay on ob/ob mice (34 h) turned out to be 36.4%. In addition, the “Blood glucose at different time after administration, 34 h” value in the assay with ob/ob mice (34 h, X ± s, n = 7) is listed as 13.13 ± 2.21 mmol/L. Further, the “Decrease rate of blood glucose at different time after administration, 48 h” value in the assay on ob/ob mice (48 h) worked out at 13.8%. Further, the “AUC0-24 h Glu” value in the assay on ob/ob mice (blood glucose curve area within 24 h, X ± s, n = 7) was 246.81 ± 18.95 mmol·h/L. Also, the “AUC0-24 h Glu Decrease rate” value with ob/ob mice (versus model control group) amounted to 51.7%. For the same compound, on mGIPR, the pEC50 was 11.03.

(Values after patent publication US20220251163A1 (Sinopep-Allsino Biopharmaceutical Co., Ltd., priority 2019, published 2022).)
